Measured values taken from patent publication US20250101032A1, “EXATECAN DERIVATIVES AND ANTIBODY-DRUG CONJUGATES THEREOF” (priority 2021, published 2025).
Values after ≈ are worked out from the molar mass of the structure shown. Read-outs that look alike come from different tables or passages of the source.

What was measured:
[1] = Turbidity-based aqueous (kinetic) solubility in PBS pH 7.4; settings: 25 °C, pH 7.4, aqueous buffer, kinetic from dmso stock
Method: In-vitro kinetic solubilities of the compounds in PBS pH 7.4 buffer at 25° C. were determined by diluting compounds from 100% dimethyl sulfoxide (DMSO) into PBS buffer and measuring absorbance at 490, 590 and 650 nm. Stock concentrations in 100% DMSO were provided at 1-6 mM in 100% DMSO. Kinetic solubilities were determined by diluting test compounds from 100% DMSO into PBS pH 7.4 buffer, as duplicate, 10 point 2-fold serial dilution starting at 100× dilution of stock DMS solution into PBS buffer in a clear, flat bottom polystyrene assay plates. Total assay volume was 200 microliters. Solutions were mixed by plate shaking, incubated for 30 m at 25° C., and absorbance was read at 490, 590 and 650 nm. […] in PBS buffer was used as a blank. For each test compound, average optical density (GD) at each concentration was determined by averaging the blank corrected sum of absorption at 490 nm, 590 nm and 650 nm, over duplicate measurements. Turbidity threshold optical density value was set as a sum of mean plus two standard deviations of the mean of absorbances at 490, 590 and 650 nm for 1% (v/v) DMSO in PBS pH 7.4 buffer. Highest soluble concentration (micromolar) corresponded to the highest concentration at which average optical density was below optical density value set for turbidity threshold (Table 4). Amiodarone and propranolol were used as low and high solubility controls respectively.

[2] = test system: FaDu; assay: In vitro cytotoxicity assay (CellTiter-Glo), FaDu; type: cell-based, Human; settings: read-out: Cytotoxicity IC50
Method: (§1) Human tumor cell lines, SK-BR-3, NCI-H292, HT-29, MCF-7, NCI-N87, and FaDu were obtained from ATCC. NCI-H292, HT-29, MCF-7, and NCI-N87 cells were cultured in RPMI-1640 media (Gibco, Life Technologies) supplemented with 10% v/v heat inactivated FBS (Corning), FaDu cells were maintained in DMEM media (Gibco, Life Technologies) supplemented with 10% v/v heat inactivated FBS (Corning). SK-BR-3 cells were maintained in McCoys 5A medium (Gibco, Life Technologies) supplemented with 10% […] heat inactivated FBS (Corning) at 37° C. in a humidified incubator containing 5% CO2.
(§2) Lyophilized compounds were dissolved in 100% dry DMSO, aliquots frozen and stored at −80° C. Concentration and purity of compound stock solutions in DMSO were determined by RP-HPLC Agilent 1100 platform with 1200 DAD and SofTA ELSD detectors, and the Agilent 6150 MS system (UV/VIS, ELSD purity and MS compound identity confirmation). Shimadzu 3.0 mm×30 mm XR ODS 2.2 μm column was run at 50° C., 1.5 mL/min. Solvent A: 0.1% Formic acid in water, Solvent B: 0.08% Formic acid in methanol-Gradient: 5%-100% B in 3.0 min, 100% solvent B for 0.3 min. Concentration of compounds in 100% DMSO determined by ELS ranged from 1-6 mM.
(§3) Cells were plated in 96-well white flat-bottomed plates (Corning) at 2.0×10^3 cells per well in 100 μL culture medium. After incubation for 24 hours, test compounds were added at a range of concentrations as ten point serial dilution as duplicates or triplicates. Following further incubation for 6 days 37° C., 5% CO2, cell viability was assessed with the use of a CellTiter-Glo Luminescent Cell Viability Assay (Promega). Luminescence was measured using the GloMax instrument (Promega). […] For a subset of payloads, each treatment was independently repeated two to eight times, and IC50 values were averaged. […] Standard deviation (stdev) is shown as (N/A) for treatment performed once.

[3] = test system: MCF7; assay: In vitro cytotoxicity assay (CellTiter-Glo), MCF7; type: cell-based, Human; settings: read-out: Cytotoxicity IC50
Method: as §1, §2, §3

[4] = test system: NCI-H292; assay: In vitro cytotoxicity assay (CellTiter-Glo), NCI-H292; type: cell-based, Human; settings: read-out: Cytotoxicity IC50
Method: as §1, §2, §3

[5] = test system: SKBR3; assay: In vitro cytotoxicity assay (CellTiter-Glo), SKBR3; type: cell-based, Human; settings: read-out: Cytotoxicity IC50
Method: as §1, §2, §3

[6] = test system: NCI-N87; assay: In vitro cytotoxicity assay (CellTiter-Glo), NCI-N87; type: cell-based, Human; settings: read-out: Cytotoxicity IC50
Method: as §1, §2, §3

[7] = test system: HT29; assay: In vitro cytotoxicity assay (CellTiter-Glo), HT29; type: cell-based, Human; settings: read-out: Cytotoxicity IC50
Method: as §1, §2, §3

[8] = test system: BXPC3; assay: In vitro cytotoxicity assay (CellTiter-Glo), BXPC3; type: cell-based; settings: read-out: Cytotoxicity IC50
Method: (§4) Lyophilized compounds were dissolved in 100% dry DMSO, aliquots frozen and stored at −80° C. […] Shimadzu 3.0 mm×30 mm XR ODS 2.2 μm column was run at 50° C., 1.5 mL/min. Solvent A: 0.1% Formic acid in water, Solvent B: 0.08% Formic acid in methanol-Gradient: 5%-100% B in 3.0 min, 100% solvent B for 0.3 min.
as §3

[9] = test system: SKOV3; assay: In vitro cytotoxicity assay (CellTiter-Glo), SKOV3; type: cell-based; settings: read-out: Cytotoxicity IC50
Method: as §4, §3

| Structure (SMILES) | solubility at 30 min [1] | IC50 ([2]; Homo sapiens, FaDu, 144 h) | IC50 ([3]; Homo sapiens, MCF7, 144 h) | IC50 ([4]; Homo sapiens, NCI-H292, 144 h) | IC50 ([5]; Homo sapiens, SK-BR-3, 144 h) | IC50 ([6]; Homo sapiens, NCI-N87, 144 h) | IC50 ([7]; Homo sapiens, HT-29, 144 h) | IC50 ([8]; Homo sapiens, BXPC-3, 144 h) | IC50 ([9]; Homo sapiens, SK-OV-3, 144 h) | IC50 ([2]; FaDu cells, 6 days incubation, mean of IC50 values) | IC50 ([3]; MCF7 cells, 6 days incubation, mean of IC50 values) | IC50 ([4]; NCI-H292 cells, 6 days incubation, mean of IC50 values) | IC50 ([5]; SKBR3 cells, 6 days incubation, mean of IC50 values) | IC50 ([8]; BXPC3 cells, 6 days incubation, mean of IC50 values) | IC50 ([9]; SKOV3 cells, 6 days incubation, mean of IC50 values) | IC50 ([6]; NCI-N87 cells, 6 days incubation, mean of IC50 values) | IC50 ([7]; HT29 cells, 6 days incubation, mean of IC50 values) |
| --- | --- | --- | --- | --- | --- | --- | --- | --- | --- | --- | --- | --- | --- | --- | --- | --- | --- |
| CC(C)NCC(O)COc1cccc2ccccc12 (stereo not drawn) [Propranolol, propranolol, reference compound] | 100 µM (≈ 25.9 µg/mL) |  |  |  |  |  |  |  |  |  |  |  |  |  |  |  |  |
| CC[C@@]1(O)C(=O)OCc2c1cc1n(c2=O)Cc2c-1nc1cc(F)c(C)c3c1c2[C@@H](N(C)CCO)CC3 [Compound 140] | 10 µM (≈ 4.94 µg/mL) | 0.3 nM | 0.2 nM | 3 nM | 0.8 nM | 1.5 nM | 1.2 nM |  |  |  |  |  |  |  |  |  |  |
| CC[C@@]1(O)C(=O)OCc2c1cc1n(c2=O)Cc2c-1nc1cc(F)c(C)c3c1c2[C@@H](NC(=O)CCC(=O)NC(CO)(CO)CO)CC3 [Compound 122] |  | 121 nM | 205 nM | 1020 nM | 657 nM | 2700 nM | 3400 nM | 227 nM | 819 nM |  |  |  |  |  |  |  |  |
| CC[C@@]1(O)C(=O)OCc2c1cc1n(c2=O)Cc2c-1nc1cc(F)c(C)c3c1c2[C@@H](NCCOCCO)CC3 [Compound 147] | 21 µM (≈ 11 µg/mL) | 3 nM | 3.1 nM | 9.4 nM | 2.7 nM | 8.5 nM | 7.1 nM |  |  |  |  |  |  |  |  |  |  |
| CC[C@@]1(O)C(=O)OCc2c1cc1n(c2=O)Cc2c-1nc1cc(F)c(C)c3c1c2[C@@H](NC(=O)c1cc(O)[nH]n1)CC3 [Compound 166] | 22 µM (≈ 12 µg/mL) | 93.8 nM | 162 nM | 322 nM | 118 nM | 410 nM | 663 nM |  |  |  |  |  |  |  |  |  |  |
| CC[C@@]1(O)C(=O)OCc2c1cc1n(c2=O)Cc2c-1nc1cc(F)c(C)c3c1c2[C@@H](NC(=O)C1(O)COC1)CC3 [Compound 159] | 27 µM (≈ 14.5 µg/mL) | 2 nM | 9.8 nM | 21.6 nM | 5.8 nM | 22.4 nM | 64.2 nM |  |  |  |  |  |  |  |  |  |  |
| CC[C@@]1(O)C(=O)OCc2c1cc1n(c2=O)Cc2c-1nc1cc(F)c(C)c3c1c2[C@@H](NC(=O)C1CC(O)C1)CC3 (stereo partly drawn) [Compound 58] |  | 6.3 nM | 32 nM | 60.5 nM | 12.1 nM | 49.4 nM | 177 nM |  |  |  |  |  |  |  |  |  |  |
| CC[C@@]1(O)C(=O)OCc2c1cc1n(c2=O)Cc2c-1nc1cc(F)c(C)c3c1c2[C@@H](NC(=S)CO)CC3 [Compound 176] |  | 0.9 nM | 7.8 nM | 4.5 nM | 0.7 nM | 2.1 nM | 4.3 nM |  |  |  |  |  |  |  |  |  |  |
| CC[C@@]1(O)C(=O)OCc2c1cc1n(c2=S)Cc2c-1nc1cc(F)c(C)c3c1c2[C@@H](NC(=S)[C@H]1C[C@@H]1CO)CC3 [Compound 175-B] |  | 0.3 nM | 0.6 nM | 1.5 nM | 0.5 nM | 1.5 nM | 1.6 nM |  |  |  |  |  |  |  |  |  |  |
| CC[C@@]1(O)C(=O)OCc2c1cc1n(c2=O)Cc2c-1nc1cc(F)c(C)c3c1c2[C@@H](NCCNCCN)CC3 [Compound 164] | 10 µM (≈ 5.22 µg/mL) | 8.8 nM | 5.2 nM | 30.3 nM | 10.8 nM | 22.8 nM | 32.7 nM |  |  |  |  |  |  |  |  |  |  |
| CC[C@@]1(O)C(=O)OCc2c1cc1n(c2=O)Cc2c-1nc1cc(F)c(C)c3c1c2[C@@H](NC(=O)CO)CC3 [DXD] |  |  |  |  |  |  |  |  |  | 0.9 nM | 2.7 nM | 3.8 nM | 1.3 nM | 2.3 nM | 8.6 nM | 4.7 nM | 6.9 nM |
| CC[C@@]1(O)C(=O)OCc2c1cc1n(c2=O)Cc2c-1nc1cc(F)c(C)c3c1c2[C@@H](NC(=O)CCC1OCCO1)CC3 [Compound 188] | 6 µM (≈ 3.38 µg/mL) | 1.5 nM | 4.9 nM | 6.6 nM | 3.4 nM | 9 nM | 13 nM |  |  |  |  |  |  |  |  |  |  |
| CC[C@@]1(O)C(=O)OCc2c1cc1n(c2=O)Cc2c-1nc1cc(F)c(C)c3c1c2[C@@H](NC(=O)[C@H]1C[C@H]1CO)CC3 (single isomer, unassigned) [Compound 111-B] | 30 µM (≈ 16 µg/mL) | 1.1 nM | 3.8 nM | 4.5 nM | 2.1 nM | 5.2 nM | 6.3 nM |  |  |  |  |  |  |  |  |  |  |
| CC[C@@]1(O)C(=O)OCc2c1cc1n(c2=O)Cc2c-1nc1cc(F)c(C)c3c1c2[C@@H](NC(=O)c1cc(CO)[nH]n1)CC3 [Compound 168] |  | 9.9 nM | 19.4 nM | 77.9 nM | 32.7 nM | 103 nM | 627 nM |  |  |  |  |  |  |  |  |  |  |
| CC[C@@]1(O)C(=O)OCc2c1cc1n(c2=O)Cc2c-1nc1cc(F)c(C)c3c1c2[C@@H](NC(=O)c1coc(CO)n1)CC3 [Compound 167] |  | 3 nM | 8.9 nM | 23 nM | 3.5 nM | 34 nM | 43.5 nM |  |  |  |  |  |  |  |  |  |  |
| CC[C@@]1(O)C(=O)OCc2c1cc1n(c2=S)Cc2c-1nc1cc(F)c(C)c3c1c2[C@@H](NC(=O)CO)CC3 [Compound 106] |  |  | 0.2 nM | 0.4 nM | 0.4 nM | 0.9 nM | 1.1 nM |  |  |  |  |  |  |  |  |  |  |
| CC[C@@]1(O)C(=O)OCc2c1cc1n(c2=O)Cc2c-1nc1cc(F)c(C)c3c1c2[C@@H](NC(=O)C#CCO)CC3 [Compound 83] |  | 16.5 nM | 42.2 nM | 121 nM | 25.6 nM | 159 nM | 255 nM |  |  |  |  |  |  |  |  |  |  |
| CC[C@@]1(O)C(=O)OCc2c1cc1n(c2=S)Cc2c-1nc1cc(F)c(C)c3c1c2[C@@H](N)CC3 [Compound 107] | 15 µM (≈ 6.77 µg/mL) | 0.1 nM | 0.2 nM | 0.6 nM | 0.1 nM | 0.2 nM | 0.4 nM |  |  |  |  |  |  |  |  |  |  |
| CC[C@@]1(O)C(=O)OCc2c1cc1n(c2=O)Cc2c-1nc1cc(F)c(C)c3c1c2[C@@H](NC(=O)C12CC(O)(C1)C2)CC3 [Compound 79] |  | 2.3 nM | 9.8 nM | 14 nM | 5.9 nM | 15.5 nM | 31.7 nM | 5.5 nM | 25.3 nM |  |  |  |  |  |  |  |  |
| CC[C@@]1(O)C(=O)OCc2c1cc1n(c2=O)Cc2c-1nc1cc(F)c(C)c3c1c2[C@@H](N(C=O)CCO)CC3 [Compound 163] | 24 µM (≈ 12.2 µg/mL) | 7.8 nM | 10.9 nM | 22.3 nM | 9.8 nM | 29.4 nM | 65 nM |  |  |  |  |  |  |  |  |  |  |
